# Data published in ChEMBL document CHEMBL1201862, “PubChem BioAssay data set” (2004).
# Calls of active or inactive are those of the source.
# How the values were obtained:
# [1] = target: Dual specificity protein phosphatase 3 (Homo sapiens, UniProt P51452); experiment: SAR VHR1 Fluorescent Assay for In Vitro dose response studies Set 2. [Related pubchem assays (depositor defined):AID1654, AID1661, AID1878]; assay type: functional
# [2] = cells; assay type: functional, cell-based
# [3] = cells; assay type: functional, cell-based; remark: listed apart in the source
# [4] = DRD fibroblast viability loss – cell-based, non-viral oncogenic, luminescence, dose response (AID 1934); assay type: functional; conditions: Homo sapiens
# [5] = viability loss in Vero cells – cytotoxicity control for Vif-APOBEC3G degradation inhibitor project, dose response (AID 1117358); assay type: functional; conditions: Vero
# [6] = target: Cytochrome P450 3A4 (Homo sapiens, UniProt P08684);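 note: CYP3A4 tested as one member of a cytochrome P450 panel screen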
# [7] = target: T1, Hexokinase HKDC1 (Homo sapiens, UniProt Q2TB90); experiment: inhibition of HKDC1 glucose phosphorylation – biochemical, W721R variant, dose response (AID 504729); assay type: functional
# T1 sequence (Q2TB90 whole entry): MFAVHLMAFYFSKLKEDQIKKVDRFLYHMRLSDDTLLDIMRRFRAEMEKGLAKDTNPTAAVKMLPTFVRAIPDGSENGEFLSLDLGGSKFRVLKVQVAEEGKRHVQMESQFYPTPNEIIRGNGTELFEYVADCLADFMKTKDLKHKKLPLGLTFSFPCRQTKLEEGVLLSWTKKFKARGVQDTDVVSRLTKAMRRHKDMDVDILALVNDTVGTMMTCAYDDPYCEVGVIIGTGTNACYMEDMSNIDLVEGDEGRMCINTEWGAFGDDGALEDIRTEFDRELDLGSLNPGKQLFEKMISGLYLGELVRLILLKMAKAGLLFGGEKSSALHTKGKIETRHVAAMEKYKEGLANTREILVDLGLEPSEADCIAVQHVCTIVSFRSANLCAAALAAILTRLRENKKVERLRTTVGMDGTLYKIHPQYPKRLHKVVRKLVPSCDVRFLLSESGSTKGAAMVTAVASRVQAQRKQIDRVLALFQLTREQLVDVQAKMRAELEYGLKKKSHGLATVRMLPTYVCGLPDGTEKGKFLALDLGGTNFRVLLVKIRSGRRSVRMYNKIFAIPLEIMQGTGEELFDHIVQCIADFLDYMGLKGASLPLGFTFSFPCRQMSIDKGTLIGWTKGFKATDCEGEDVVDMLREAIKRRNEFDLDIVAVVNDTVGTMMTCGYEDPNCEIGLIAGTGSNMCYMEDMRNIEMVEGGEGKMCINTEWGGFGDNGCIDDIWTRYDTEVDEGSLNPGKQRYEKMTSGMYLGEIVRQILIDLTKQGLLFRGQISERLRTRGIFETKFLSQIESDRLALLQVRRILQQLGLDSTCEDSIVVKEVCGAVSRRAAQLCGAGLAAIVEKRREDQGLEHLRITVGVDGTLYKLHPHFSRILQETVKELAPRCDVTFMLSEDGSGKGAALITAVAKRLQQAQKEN
# [8] = target: T2, Apoptotic protease-activating factor 1 (Homo sapiens, UniProt O14727); assay type: functional
# T2 sequence (O14727 whole entry): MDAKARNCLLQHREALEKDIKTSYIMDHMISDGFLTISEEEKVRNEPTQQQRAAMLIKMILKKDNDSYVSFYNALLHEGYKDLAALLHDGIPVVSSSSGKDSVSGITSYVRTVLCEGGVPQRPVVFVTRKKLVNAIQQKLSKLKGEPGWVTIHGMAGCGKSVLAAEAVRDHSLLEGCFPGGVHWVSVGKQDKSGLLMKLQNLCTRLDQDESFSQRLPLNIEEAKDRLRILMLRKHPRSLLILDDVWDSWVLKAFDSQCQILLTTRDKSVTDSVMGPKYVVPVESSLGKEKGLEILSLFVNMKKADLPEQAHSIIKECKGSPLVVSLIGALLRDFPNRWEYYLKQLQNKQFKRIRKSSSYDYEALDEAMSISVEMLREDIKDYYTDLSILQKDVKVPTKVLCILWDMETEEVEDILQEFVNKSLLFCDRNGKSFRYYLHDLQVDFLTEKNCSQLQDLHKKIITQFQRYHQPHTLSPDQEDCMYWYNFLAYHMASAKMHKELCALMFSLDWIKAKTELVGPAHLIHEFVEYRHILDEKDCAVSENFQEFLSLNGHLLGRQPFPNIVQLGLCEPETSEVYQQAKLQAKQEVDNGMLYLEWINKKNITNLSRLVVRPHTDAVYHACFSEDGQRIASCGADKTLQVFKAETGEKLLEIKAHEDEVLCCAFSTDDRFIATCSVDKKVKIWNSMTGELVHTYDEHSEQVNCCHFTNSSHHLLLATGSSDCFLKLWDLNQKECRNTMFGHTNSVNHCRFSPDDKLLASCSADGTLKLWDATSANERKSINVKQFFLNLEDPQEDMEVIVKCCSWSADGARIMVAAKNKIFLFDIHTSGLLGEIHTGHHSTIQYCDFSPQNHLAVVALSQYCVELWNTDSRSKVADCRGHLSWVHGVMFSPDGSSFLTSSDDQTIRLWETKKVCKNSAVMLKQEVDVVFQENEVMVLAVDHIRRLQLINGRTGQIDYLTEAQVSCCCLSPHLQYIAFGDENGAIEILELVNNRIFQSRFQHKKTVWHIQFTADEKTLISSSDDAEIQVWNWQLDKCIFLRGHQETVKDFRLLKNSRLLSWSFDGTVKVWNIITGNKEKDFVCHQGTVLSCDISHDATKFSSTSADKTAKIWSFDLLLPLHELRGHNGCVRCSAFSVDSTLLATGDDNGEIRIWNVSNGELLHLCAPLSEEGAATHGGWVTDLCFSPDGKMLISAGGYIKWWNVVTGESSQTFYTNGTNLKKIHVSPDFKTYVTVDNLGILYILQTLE
# [9] = inhibition of ARNT PAS-B/TACC3 complex formation – biochemical, AlphaScreen, cherry-picked samples, confirmation (AID 651703); assay type: functional, Homo sapiens;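 note: His-tagged ARNT PAS-B domain paired with GST-TACC3 E629A dimer coactivator fragment; potency of inhibitors that break up the complex and lower AlphaScreen signal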
# [10] = MIN6 cell viability loss – mouse insulinoma, cytotoxicity control, dose response (AID 2122); assay type: functional;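 note: confirmatory high-throughput counterscreen run to flag cytotoxic compounds; mouse MIN-6 beta cells carrying an insulin promoter eGFP reporter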
# [11] = mitochondrial function rescue without frataxin homolog – Friedreich's ataxia, plus single-dose screen, dose response (AID 1465); assay type: functional;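 note: yeast depleted of Yfh1p frataxin homolog grown on glycerol needing respiration; WST-1 tetrazolium dye reduction as measure of cellular dehydrogenase metabolic activity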
# [12] = target: 1-phosphatidylinositol 4,5-bisphosphate phosphodiesterase gamma-1 (Homo sapiens, UniProt P19174); experiment: Counterscreen for inhibitors of phospholipase C isozymes (PLC-B3): Fluorescence-based biochemical high throughput dose response assay to identify inhibitors of phospholipase C isozymes (PLC-gamma1).
# [13] = target: Transitional endoplasmic reticulum ATPase (Homo sapiens, UniProt P55072); experiment: p97 ATPase inhibitors, dose response, biochemical (AID 1534)
# [14] = target: Intestinal-type alkaline phosphatase (Homo sapiens, UniProt P09923); experiment: activation of human intestinal alkaline phosphatase – biochemical, dose response (AID 488873); assay type: functional
# Chain of Intestinal-type alkaline phosphatase (P09923 whole entry): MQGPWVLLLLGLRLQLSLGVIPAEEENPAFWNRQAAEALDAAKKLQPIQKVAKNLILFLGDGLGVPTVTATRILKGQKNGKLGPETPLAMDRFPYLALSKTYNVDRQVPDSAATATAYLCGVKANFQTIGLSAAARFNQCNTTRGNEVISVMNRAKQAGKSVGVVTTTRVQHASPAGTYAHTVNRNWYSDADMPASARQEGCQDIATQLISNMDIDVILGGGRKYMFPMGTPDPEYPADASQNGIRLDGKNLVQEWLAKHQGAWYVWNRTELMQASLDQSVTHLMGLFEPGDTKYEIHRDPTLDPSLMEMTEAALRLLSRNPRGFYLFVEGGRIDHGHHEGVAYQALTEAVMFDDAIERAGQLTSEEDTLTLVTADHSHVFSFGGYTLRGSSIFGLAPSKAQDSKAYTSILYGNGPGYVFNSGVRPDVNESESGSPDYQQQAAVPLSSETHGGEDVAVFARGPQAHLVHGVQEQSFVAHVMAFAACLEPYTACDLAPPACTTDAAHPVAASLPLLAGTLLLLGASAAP
# Chain of Cytochrome P450 3A4 (P08684 whole entry): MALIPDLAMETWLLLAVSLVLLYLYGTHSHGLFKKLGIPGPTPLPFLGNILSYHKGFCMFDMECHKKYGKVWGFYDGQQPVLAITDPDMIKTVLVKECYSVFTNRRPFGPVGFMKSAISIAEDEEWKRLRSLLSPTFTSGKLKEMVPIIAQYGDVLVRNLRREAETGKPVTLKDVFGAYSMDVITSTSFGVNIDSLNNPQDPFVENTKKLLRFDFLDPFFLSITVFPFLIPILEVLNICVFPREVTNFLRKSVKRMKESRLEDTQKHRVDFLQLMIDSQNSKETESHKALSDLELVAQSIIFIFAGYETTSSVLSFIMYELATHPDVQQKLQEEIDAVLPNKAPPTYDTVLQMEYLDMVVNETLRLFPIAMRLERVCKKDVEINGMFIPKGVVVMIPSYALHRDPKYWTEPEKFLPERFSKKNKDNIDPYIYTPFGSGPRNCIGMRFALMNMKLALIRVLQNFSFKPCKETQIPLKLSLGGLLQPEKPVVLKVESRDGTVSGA
# Chain of 1-phosphatidylinositol 4,5-bisphosphate phosphodiesterase gamma-1 (P19174 whole entry): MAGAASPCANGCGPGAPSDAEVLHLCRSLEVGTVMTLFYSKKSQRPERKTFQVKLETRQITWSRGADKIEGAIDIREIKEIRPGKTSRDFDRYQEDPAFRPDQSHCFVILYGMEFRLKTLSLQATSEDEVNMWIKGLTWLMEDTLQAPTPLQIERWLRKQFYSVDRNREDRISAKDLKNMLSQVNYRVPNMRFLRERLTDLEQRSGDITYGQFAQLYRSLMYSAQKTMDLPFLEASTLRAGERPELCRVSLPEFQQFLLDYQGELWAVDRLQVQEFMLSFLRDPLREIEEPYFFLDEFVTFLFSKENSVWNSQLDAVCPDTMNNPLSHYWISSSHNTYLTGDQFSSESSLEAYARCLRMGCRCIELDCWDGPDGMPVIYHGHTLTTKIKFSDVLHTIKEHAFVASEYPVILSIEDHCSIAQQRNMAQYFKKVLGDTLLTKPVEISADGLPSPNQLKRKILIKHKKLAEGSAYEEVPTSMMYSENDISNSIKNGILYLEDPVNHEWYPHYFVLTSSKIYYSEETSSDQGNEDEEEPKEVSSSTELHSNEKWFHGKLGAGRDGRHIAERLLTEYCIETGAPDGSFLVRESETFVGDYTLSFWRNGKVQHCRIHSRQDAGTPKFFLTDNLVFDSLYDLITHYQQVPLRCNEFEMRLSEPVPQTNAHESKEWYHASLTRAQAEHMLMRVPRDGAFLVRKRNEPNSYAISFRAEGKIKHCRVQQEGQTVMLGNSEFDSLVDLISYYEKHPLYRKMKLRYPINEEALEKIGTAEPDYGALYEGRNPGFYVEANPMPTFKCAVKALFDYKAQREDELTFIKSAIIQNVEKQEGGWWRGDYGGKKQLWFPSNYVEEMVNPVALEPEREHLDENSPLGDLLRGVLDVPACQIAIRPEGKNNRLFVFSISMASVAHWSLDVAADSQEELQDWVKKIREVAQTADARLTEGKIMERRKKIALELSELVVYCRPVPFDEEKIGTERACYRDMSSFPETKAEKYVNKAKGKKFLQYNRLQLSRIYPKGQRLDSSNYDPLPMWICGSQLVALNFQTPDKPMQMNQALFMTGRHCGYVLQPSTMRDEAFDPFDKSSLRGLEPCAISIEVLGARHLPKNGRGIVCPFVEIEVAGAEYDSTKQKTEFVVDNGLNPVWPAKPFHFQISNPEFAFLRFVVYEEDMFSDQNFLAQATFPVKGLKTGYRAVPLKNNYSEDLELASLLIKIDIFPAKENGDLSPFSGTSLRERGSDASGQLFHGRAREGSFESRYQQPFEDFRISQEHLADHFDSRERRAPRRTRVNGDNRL
# Chain of Dual specificity protein phosphatase 3 (P51452 whole entry): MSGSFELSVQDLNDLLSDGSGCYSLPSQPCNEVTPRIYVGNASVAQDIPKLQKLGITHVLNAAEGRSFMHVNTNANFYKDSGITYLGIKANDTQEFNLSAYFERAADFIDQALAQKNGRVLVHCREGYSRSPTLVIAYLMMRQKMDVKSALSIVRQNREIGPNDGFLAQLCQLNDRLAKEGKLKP
# Chain of Transitional endoplasmic reticulum ATPase (P55072 whole entry): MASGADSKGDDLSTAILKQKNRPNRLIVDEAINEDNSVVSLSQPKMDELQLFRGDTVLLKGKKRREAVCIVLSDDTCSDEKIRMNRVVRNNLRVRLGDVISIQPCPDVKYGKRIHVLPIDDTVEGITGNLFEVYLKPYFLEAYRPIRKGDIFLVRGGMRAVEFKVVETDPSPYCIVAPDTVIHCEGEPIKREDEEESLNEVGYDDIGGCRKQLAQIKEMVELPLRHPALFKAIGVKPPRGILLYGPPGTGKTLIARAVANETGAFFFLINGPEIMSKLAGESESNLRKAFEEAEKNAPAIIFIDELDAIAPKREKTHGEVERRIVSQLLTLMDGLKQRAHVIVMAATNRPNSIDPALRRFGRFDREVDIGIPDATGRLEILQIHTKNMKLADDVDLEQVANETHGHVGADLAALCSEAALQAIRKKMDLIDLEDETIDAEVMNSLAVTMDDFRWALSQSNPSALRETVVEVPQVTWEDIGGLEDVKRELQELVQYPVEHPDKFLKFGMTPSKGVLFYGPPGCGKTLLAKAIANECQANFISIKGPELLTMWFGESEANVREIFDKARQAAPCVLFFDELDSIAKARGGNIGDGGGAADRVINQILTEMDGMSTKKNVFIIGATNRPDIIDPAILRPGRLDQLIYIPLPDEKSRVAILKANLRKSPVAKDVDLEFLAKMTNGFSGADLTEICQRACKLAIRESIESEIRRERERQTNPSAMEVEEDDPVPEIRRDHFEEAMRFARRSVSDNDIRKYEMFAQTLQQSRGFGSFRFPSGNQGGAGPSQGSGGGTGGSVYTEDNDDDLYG
compound,measurement,setting,value
CCc1nnc(NS(=O)(=O)c2ccc(NC(=S)NC(=O)/C=C/c3ccc(C(C)C)cc3)cc2)s1,IC50,[1],15 µM (active)
O=C(/C=C/c1ccco1)Nc1ccc(Oc2ccccc2)cc1,EC50,[2],> 350 µM (not active)
same,EC50,[3],6.08 µM (active)
same,EC50,[4],18.1 µM (active)
same,CC50,[5],> 40 µM (active)
same,AC50,[6],39.8 µM (inconclusive)
COc1ccc(S(=O)(=O)Nc2cc(SCC(=O)O)c(O)c3ccccc23)cc1,IC50,[7],12 µM (active)
same,IC50,[8],31.8 µM (active)
same,AC50,[9],126 µM (active)
O=C1C(Nc2ccc(O)cc2)=C/C(=N/S(=O)(=O)c2cccs2)c2ccccc21,IC50,[10],0.702 µM (active)
same,EC50,[11],> 100 µM (active)
same,IC50,[7],8.31 µM (active)
same,IC50,[12],29.3 µM (inactive)
COC(=O)C(O)(c1c(C)[nH]n(-c2ccccc2)c1=O)C(F)(F)F (stereo unspecified),IC50,[8],14.6 µM (active)
CC1CC(=O)c2c(cc3c(-c4c(O)cc(O)c5c(O)c6c(cc45)OC(C)CC6=O)c(O)cc(O)c3c2O)O1 (stereo unspecified) [CEPHALOCHROMIN],IC50,[13],43.9 µM (not active)
same,EC50,[14],21.7 µM (active)
